pEC50: −log10 of the molar value. Where two headings read alike, the source gives them in different places.
What was measured:
HCV genotype 1b replicon = assay: HCV replicon luciferase reporter assay, genotype 1b (LE_1b); format: cell-based; details: Hepatitis C virus, 72 h, HUH-7 cells, genotype 1b (Con1) replicon, 3 days incubation, Renilla luciferase
Procedure, shortened: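 HUH-7 cells stably carrying Renilla luciferase replicons (1b Con1 with S1179I; 1a H77 with P1496L and S2204I), 3.0×10^3 cells/well in 4% FCS, 0.5% DMSO, twenty-point 3-fold titration. After 3 days at 37° C., luminescence read with EnduRen (7.5 μM final, 2 hrs). EC50 from four-parameter logistic fit; CC50 from multiplexed Cell Titer-Blue (8 hrs).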

HCV genotype 1a replicon = assay: HCV replicon luciferase reporter assay, genotype 1a (LE_1a); format: cell-based; details: Hepatitis C virus, 72 h, HUH-7 cells, genotype 1a H77 replicon, 3 days incubation, Renilla luciferase

| SMILES | pEC50 (HCV genotype 1b replicon; read-out: LE_1b (EC50, range)) | pEC50 (HCV genotype 1a replicon; read-out: LE_1a (EC50, range)) | pEC50 (HCV genotype 1b replicon; read-out: LE_1b (EC50)) | pEC50 (HCV genotype 1a replicon; read-out: LE_1a (EC50)) |
| --- | --- | --- | --- | --- |
| Cc1cn2c(n1)nc(O[C@@H]1C[C@H]3C(=O)N[C@]4(C(=O)NS(=O)(=O)C5(CF)CC5)C[C@H]4/C=C\CC[C@@H](C)C[C@@H](C)[C@H](NC(=O)OC(C)(C)C(C)(F)F)C(=O)N3C1)c1cc(Cl)ccc12 [Compound 6141] | 8.30 to 9.00 | 7.46 to 8.30 | – | – |
| C[C@@H]1CC/C=C\[C@@H]2C[C@@]2(C(=O)NS(=O)(=O)C2(C)CC2)NC(=O)[C@@H]2C[C@@H](Oc3nc4cc(C(=O)OC(C)(C)C)ccc4nc3C(F)(F)F)CN2C(=O)[C@@H](NC(=O)OC(C)(C)C(C)(F)F)[C@H](C)C1 [Compound 7001, tert-butyl 3-(((2R,6S,7R,9R,13aS,14aR,16aS,Z)-6-((((3,3-difluoro-2-methylbutan-2-yl)oxy)carbonyl)amino)-7,9-dimethyl-14a-(((1-methylcyclopropyl)sulfonyl)carbamoyl)-5,16-dioxo-1,2,3,5,6,7,8,9,10,11,13a,14,14a,15,16,16a-hexadecahydrocyclopropa[e]pyrrolo[1,2-a][1,4]diazacyclopentadecin-2-yl)oxy)-2-(trifluoromethyl)quinoxaline-6-carboxylate] | 9.00 to 9.29 | 8.30 to 9.00 | – | – |
| Cc1cnc(-c2ccc3nc(C(F)(F)F)c(O[C@@H]4C[C@H]5C(=O)N[C@]6(C(=O)NS(=O)(=O)C7(C)CC7)C[C@H]6/C=C\CC[C@@H](C)C[C@@H](C)[C@H](NC(=O)OC(C)(C)C(F)(F)F)C(=O)N5C4)nc3c2)o1 [Compound 7002] | 9.00 to 9.29 | 8.30 to 9.00 | – | – |
| CC[C@@H]1C[C@H](C)CC/C=C\[C@@H]2C[C@@]2(C(=O)NS(=O)(=O)C2(C)CC2)NC(=O)[C@@H]2C[C@@H](Oc3nc4cc(-c5ncc(C)o5)ccc4nc3C(F)(F)F)CN2C(=O)[C@H]1NC(=O)OC(C)(C)C(F)(F)F [Compound 7003] | 9.00 to 9.29 | 8.30 to 9.00 | 9.10 | 8.43 |
